From paper PMC6272185 (Molecules, 2015)
Values after ≈ are worked out from the molar mass of the structure shown. Where two headings read alike, the source gives them in different places.

Legend:
M. tuberculosis H37Rv = test: microbe, parasite or virus in culture; assay type: cell-based, Mycobacterium tuberculosis; details: Mycobacterium tuberculosis
M. tuberculosis M299 = test: microbe, parasite or virus in culture; assay type: cell-based, Mycobacterium tuberculosis; details: for MIC50 / MIC90: Mycobacterium tuberculosis, M299, 120 h
[1] = test system: PGE2 production by LPS-stimulated RAW 264.7 macrophages; test: Inhibition of PGE2 production by LPS-stimulated macrophages (ELISA); assay type: cell-based, murine; details: Mus musculus, RAW264.7, 24 h, read-out: IC50 PGE2
Experimental: (§1) Murine RAW 264.7 macrophage cell line (American Type Culture Collection, Manassas, VA, USA), was cultured in Dulbecco’s modified Eagle’s medium (DMEM-F12) supplemented with 10% Fetal Bovine Serum (FBS) and gentamicin (50 µg/mL) in 5% CO2 atmosphere at 37 °C. For experiments, the cells were seeded in 96-well plates (1 × 10^5 cells/well) and incubated for 24 h at 37 °C. For macrophage stimulation, the cell cultures were treated with LPS (1 µg/mL) and incubated for additional 24 h in the presence or absence of the chalcone samples (samples 1–41) that were used at concentrations of 100, 20, 4 and 0.8 µg/mL. In some experiments, a nitric oxide (NO) inhibitor, L-NMMA (20 μg/mL), was used as a positive control of NO inhibition, and a non-steroidal anti-inflammatory drug indomethacin, known to inhibit production of prostaglandins, was used as a positive control of PGE2 inhibition.
(§2) The frozen culture supernatants samples were thawed and immediately analyzed using commercially available enzyme-linked immunosorbent assay (ELISA) kits to measure TNF-α, IL-1β (BD Biosciences) and PGE2 (R&D Systems, Minneapolis, MN, USA), according to the manufacturer’s instructions. Standard curves for each mediator were generated using reference cytokine concentrations supplied by the manufacturer. Nitric oxide (NO) generation was assessed by the Griess method to measure nitrites, which are stable breakdown NO products.

[2] = test system: TNF-α production by LPS-stimulated RAW 264.7 macrophages; test: Inhibition of TNF-α production by LPS-stimulated macrophages (ELISA); assay type: cell-based, murine; details: for IC50: Mus musculus, read-out: IC50 TNF-α; for inhibition of TNF-α: LPS-stimulated RAW 264.7
[3] = test system: RAW 264.7 macrophages infected with M. tuberculosis H37Rv; test: Toxicity for infected macrophages, LDH assay; assay type: cell-based, murine; details: Mus musculus, RAW264.7, 96 h; infected RAW 264.7, 4 days treatment; Figure 3D
Experimental: Cytotoxic effects of chalcone samples on RAW 264.7 cell viability in cultures stimulated with LPS were determined using the LDH (lactate dehydrogenase) release assay as previously described. Cytoplasmic enzyme LDH release into cell culture supernatants was detected using a commercial LDH kit (Doles, GO, Brazil). Cell death was expressed as percentage of LDH release, which was calculated using the following formula: percentage of LDH release = 100 × (test LDH release − spontaneous release)/(maximum release − spontaneous release). The maximum release was determined following dissolution of cell monolayers using 1% (vol/vol) Triton X-100. The spontaneous release was determined in supernatants from cultures incubated in the presence of LPS and DMSO, used as a solvent for chalcone samples.
(§3) RAW 264.7 macrophages were plated (1 × 10^5 cells/well) in antibiotic-free DMEM-F12 medium supplemented with 10% fetal bovine serum and incubated for 24 h. Prior to infection, mycobacterial suspensions were sonicated for 1 minute to disperse clumps and optical densities were adjusted to 0.1. The macrophage cultures were infected at a MOI of 1:1 (macrophage: bacterium). Phagocytosis was allowed to progress for 3 h. After 3 h, extracellular mycobacteria were removed by washing with PBS 1X and the infected cell monolayers were treated for 4 days with chalcone samples or rifampicin. Macrophage viability was monitored by LDH assay and was over 80% in all experiments. On day 4 after infection, cells were lysed cells with 1% saponin to release intracellular bacteria. Lysate aliquots were diluted 10-fold in PBS, plated in triplicates on 7H10 agar plates and incubated at 37 °C. After 21 days, total CFU were determined.

M. bovis BCG = test: microbe, parasite or virus in culture; assay type: cell-based, Mycobacterium bovis BCG; details: Mycobacterium tuberculosis variant bovis BCG, BCG, 168 h; for MIC50: read-out: MIC50 M. bovis BCG; for MIC90: read-out: MIC90 M. bovis BCG
[4] = test system: IL-1β production by LPS-stimulated RAW 264.7 macrophages; test: Inhibition of IL-1β production by LPS-stimulated macrophages (ELISA); assay type: cell-based, murine; details: for IC50: Mus musculus, RAW264.7, 24 h, read-out: IC50 IL-1β; for inhibition of IL-1β: LPS-stimulated RAW 264.7
Experimental: as §1, §2

[5] = test system: M. tuberculosis strain H37Rv in RAW 264.7 macrophages; test: Intracellular growth of M. tuberculosis H37Rv in infected macrophages (CFU); assay type: cell-based, Mycobacterium tuberculosis; details: infected RAW 264.7, MOI 1:1, 4 days, Figure 3C; for MIC50: Mycobacterium tuberculosis, H37RV, 96 h
Experimental: as §3

[6] = Macrophage cytotoxicity, LDH release assay; assay type: cell-based, murine; details: mouse, RAW 264.7 macrophages stimulated with LPS; LPS-stimulated RAW 264.7, LDH release; mean ± SD, n = 3
Experimental: Cytotoxic effects of chalcone samples on RAW 264.7 cell viability in cultures stimulated with LPS were determined using the LDH (lactate dehydrogenase) release assay as previously described [58]. Cytoplasmic enzyme LDH release into cell culture supernatants was detected using a commercial LDH kit (Doles, GO, Brazil). Cell death was expressed as percentage of LDH release, which was calculated using the following formula: percentage of LDH release = 100 × (test LDH release − spontaneous release)/(maximum release − spontaneous release). The maximum release was determined following dissolution of cell monolayers using 1% (vol/vol) Triton X-100. The spontaneous release was determined in supernatants from cultures incubated in the presence of LPS and DMSO, used as a solvent for chalcone samples.

[7] = test system: NO production by LPS-stimulated RAW 264.7 macrophages; test: Inhibition of NO production by LPS-stimulated macrophages (Griess); assay type: cell-based, murine; details: mean ± SD, n = 3
[8] = test system: iNOS expression in RAW 264.7 macrophages; test: iNOS expression by western blot in LPS-stimulated macrophages; assay type: cell-based, murine; details: 20 µg/mL, LPS 1 µg/mL, 24 h
Experimental: (§4) RAW 264.7 macrophages were plated in Petri dishes (2 × 10^7 cells·mL^−1) and incubated for 24 h at 37 °C in 5% CO2 atmosphere. […] The resulted cellular monolayers were washed with PBS 1×, scraped and resuspended in PBS 1×, transferred and centrifuged to obtain cell pellets. The cells were lysed in buffer (10% SDS, 20% glycerol, 5% 2-mercaptoethanol, 2% bromophenol blue and 1 M Tris HCl, pH 6.8, containing protease inhibitors). Protein concentrations were estimated by Bradford method. For western blot analysis, cellular extract samples (60 µg) were submitted to 10% SDS–polyacrylamide gel electrophoresis under […] conditions and transferred to nitrocellulose membranes (Amersham Pharmacia Biotech, Uppsala, Sweden). After blocking with PBS-T (0.5% Tween-20) containing 2.5% (w/v) bovine serum albumin, the membranes were incubated with antibodies against iNOS (1:1000) and COX-2 (1:500) for 1 h at room temperature. After incubation period, the membranes were washed followed by treatment with horseradish peroxidase-conjugated secondary antibody. The resulting membranes were developed using diaminobenzidine/H2O2 as a substrate for peroxidase. In all electrophoresis experiments, a protein standard ladder (Full Range Rainbow-GE Healthcare, Piscataway, NJ, USA) was used to estimate proteins molecular size. Protein bands densitometric analysis was performed using ImageJ software for Windows (NIH, Bethesda, MD, USA). The value for stimulated condition (LPS- treated cells) was set as 1 and other conditions were recalculated correspondingly to allow ratio comparisons.

[9] = test system: COX-2 expression in RAW 264.7 macrophages; test: COX-2 expression by western blot in LPS-stimulated macrophages; assay type: cell-based, murine; details: 20 µg/mL, LPS 1 µg/mL, 24 h
Experimental: as §4

[10] = H37RV, 120 h, read-out: MIC50 M. tuberculosis H37Rv
[11] = Table 5, same values as M. tuberculosis H37Rv in Table 3, read-out: MIC50
[12] = Mus musculus, RAW264.7, 24 h, read-out: IC50 NO, LPS (1 µg/mL)-stimulated RAW 264.7, 24 h
[13] = RAW264.7, LPS (1 µg/mL)-stimulated RAW 264.7, 24 h, mean ± SD, n = 3
[14] = LPS (1 µg/mL)-stimulated RAW 264.7, 24 h, read-out: IC50 NO

SMILES	MIC90 (M. tuberculosis H37Rv; H37RV, 120 h) [µM]	MIC50 (M. tuberculosis H37Rv; [10]) [µM]	MIC50 (M. tuberculosis H37Rv; [11]) [µM]	activity against M299 compared with H37Rv (M. tuberculosis M299)	MIC50 (M. tuberculosis M299) [µM]	MIC90 (M. tuberculosis M299) [µM]	IC50 [1] [µM]	IC50 ([2]; RAW264.7, 24 h) [µM]	IC50 [3] [µM]	MIC50 (M. bovis BCG) [µM]	MIC90 (M. bovis BCG) [µM]	IC50 [4] [µM]	MIC50 [5] [µM]	IC50 [6] [µM]	IC50 [7, 12] [µM]	inhibition of iNOS expression [8]	IC50 [2, 13] [µM]	inhibition of TNF-α [2]	inhibition of IL-1β [4]	IC50 [7, 14] [µM]	other results
O=C(/C=C/c1ccccc1Cl)c1ccc(Br)cc1 [Chalcone 15]	288 ± 5.5 (≈ 92.6 µg/mL)	17.1 ± 3.8 (≈ 5.5 µg/mL)	17.1 ± 3.8 (≈ 5.5 µg/mL)	significantly less potent	> 311	> 311	32.8 ± 3.7	> 311	214 ± 2.5	13.8 ± 4.4 (≈ 4.44 µg/mL)	265 ± 4.5 (≈ 85.3 µg/mL)	> 311	242 ± 4.4 (≈ 77.9 µg/mL)	256 ± 3.8	36.7	–	–	–	–	–	–
O=C(/C=C/c1ccc(Cl)cc1)c1ccccc1Cl [Chalcone 33]	356 ± 4.9 (≈ 98.6 µg/mL)	36.9 ± 4.5 (≈ 10.2 µg/mL)	36.9 ± 4.5 (≈ 10.2 µg/mL)	–	–	–	75.1 ± 3.5	–	271.7 ± 2.7	45.7 ± 5.4 (≈ 12.7 µg/mL)	> 361	287 ± 3.6	248 ± 3.7 (≈ 68.7 µg/mL)	351 ± 5	–	almost completely inhibit	166 ± 5.2	–	–	–	–
COc1ccc(C(=O)/C=C/c2ccccc2)cc1 [Chalcone 24]	375 ± 6.8 (≈ 89.3 µg/mL)	25.3 ± 5.2 (≈ 6.03 µg/mL)	25.3 ± 5.2 (≈ 6.03 µg/mL)	significantly less potent	> 420	> 420	90 ± 3.4	–	319 ± 4.6	31.5 ± 5.9 (≈ 7.51 µg/mL)	399 ± 6.9 (≈ 95.1 µg/mL)	56.6 ± 3.5	42.6 ± 3.1 (≈ 10.2 µg/mL)	245 ± 4.5	< 21	–	78.8 ± 6.5	strongly inhibit	potent inhibitors	21.3 ± 4.5	–
O=C(/C=C/c1ccccc1)c1ccccc1Cl [Chalcone 31]	–	–	–	–	–	–	10.2 ± 0.5	> 412	–	90.9 ± 5.5 (≈ 22.1 µg/mL)	330 ± 4.2 (≈ 80.1 µg/mL)	> 412	–	267 ± 4.5	–	almost completely inhibit	–	–	–	–	abrogation of COX-2 expression [9]: most potent in abrogation
CN(C)c1ccc(/C=C/C(=O)c2ccccc2)cc1 [Chalcone 4]	320 ± 4.8 (≈ 80.5 µg/mL)	19.7 ± 1.9 (≈ 4.95 µg/mL)	19.7 ± 1.9 (≈ 4.95 µg/mL)	–	20.1 ± 1 (≈ 5.05 µg/mL)	351.5 ± 1.8 (≈ 88.3 µg/mL)	61.2 ± 0.5	–	374 ± 6.3	14.3 ± 5.8 (≈ 3.59 µg/mL)	137 ± 7.9 (≈ 34.5 µg/mL)	116 ± 5.5	4.2 ± 0.3 (≈ 1.06 µg/mL)	348 ± 5.1	< 21	almost completely inhibit	66.9 ± 4.3	strongly inhibit	potent inhibitors	12 ± 2.2	MIC50 intracellular M. tuberculosis H37Rv [5]: 4.2 ± 0.3 µM (≈ 1.06 µg/mL)
COc1ccc(C(=O)/C=C/c2ccc(F)cc2)cc1 [Chalcone 25]	366.1 ± 3.6 (≈ 93.8 µg/mL)	25.1 ± 5.2 (≈ 6.43 µg/mL)	25.1 ± 5.2 (≈ 6.43 µg/mL)	–	18.5 ± 3.6 (≈ 4.74 µg/mL)	366.9 ± 0.3 (≈ 94 µg/mL)	57.5 ± 2.1	–	264 ± 4.4	15.8 ± 5.2 (≈ 4.05 µg/mL)	228 ± 5.8 (≈ 58.5 µg/mL)	> 390	49.1 ± 1.7 (≈ 12.6 µg/mL)	> 390	–	–	> 390	–	–	–	IC50 ([7]; Mus musculus, RAW264.7, 24 h, LPS (1 µg/mL)-stimulated RAW 264.7, 24 h, read-out: IC50 NO): 41.2 ± 4.6 µM
